The values that follow come from patent US10174132B2, “Heparan sulfate synthesis” (UNIVERSITY OF GEORGIA RESEARCH FOUNDATION, INC., priority 2009, dated 2019).

The target in this experiment is T1, recombinant human BACE-1 (Homo sapiens, UniProt P56817).
T1 construct: purchased R & D Systems
In words: BACE-1 FRET peptide cleavage assay. The format is biochemical. Conditions: FRET peptide with Swedish variant, 20 mM sodium acetate, 0.1% Triton-X-100, pH 4.5, 2 h, 25° C., triplicate. The procedure:
The ability of the HS oligosaccharides to inhibit BACE-1 cleavage of APP was assessed using a fluorescent resonance energy transfer (FRET) peptide cleavage assay employing the Swedish amino acid variant FRET peptide 5-FAM-Glu-Val-Asn-Leu-Asp-Ala-Phe-Lys(QXL520)-OH. When intact, the amino terminal fluorophore is quenched, but upon enzymatic cleavage, it is released from quencher and fluoresces at 520 nm.
BACE inhibition assays: The ability of the compounds to inhibit BACE-1 cleavage of APP was assessed using a fluorescent resonance energy transfer (FRET) peptide cleavage assay employing the FRET peptide HiLyteFluor™488-Glu-Val-Asn-Leu-Asp-Ala-Glu-Phe-Lys(QXL520)-OH (Anaspec Inc, San Jose, Calif.), containing the Swedish amino acid variant. Assays were performed in triplicate in 96-well black plates (Greiner Bio-One Ltd) in a total volume of 100 μl of 20 mM sodium acetate, 0.1% Triton-X-100, pH 4.5 using 114 pmoles FRET peptide/well and 0.1 μg of recombinant human BACE-1 (R & D Systems; specific activity >3.5 pmol/min/μg). Inhibitors were added at 0.01 to 50 μg/mL and mixed with enzyme prior to addition of substrate. Appropriate controls for enzyme activity and background fluorescence were employed and plates were incubated (2 h, 25° C.) with reaction stopped by addition of 100 μl 2.5 M sodium acetate. Fluorescence 480ex/520em was measured on a Polarstar plate reader (BMG LabTechnologies, U.K.) and data were analyzed by plotting log concentration of inhibitor against percent inhibition and using a logistic sigmoidal curve fitting function using OriginPro 8 software (OriginLab Corporation, MA).

Where [1] appears, read: read-out: IC50 (μg/ml), inhibitory activity for cleavage of FRET peptide by BACE-1 (converted).
[2] abbreviates: read-out: IC50 (μmol), inhibitory activity for cleavage of FRET peptide by BACE-1.

Molecules are shown by their SMILES. Where a name gives a salt, the structure may show the parent alone. Read-outs that look alike come from different tables or passages of the source. Where only a bound is given, the exact number is not on record here.

T1 sequence (P56817 46-501): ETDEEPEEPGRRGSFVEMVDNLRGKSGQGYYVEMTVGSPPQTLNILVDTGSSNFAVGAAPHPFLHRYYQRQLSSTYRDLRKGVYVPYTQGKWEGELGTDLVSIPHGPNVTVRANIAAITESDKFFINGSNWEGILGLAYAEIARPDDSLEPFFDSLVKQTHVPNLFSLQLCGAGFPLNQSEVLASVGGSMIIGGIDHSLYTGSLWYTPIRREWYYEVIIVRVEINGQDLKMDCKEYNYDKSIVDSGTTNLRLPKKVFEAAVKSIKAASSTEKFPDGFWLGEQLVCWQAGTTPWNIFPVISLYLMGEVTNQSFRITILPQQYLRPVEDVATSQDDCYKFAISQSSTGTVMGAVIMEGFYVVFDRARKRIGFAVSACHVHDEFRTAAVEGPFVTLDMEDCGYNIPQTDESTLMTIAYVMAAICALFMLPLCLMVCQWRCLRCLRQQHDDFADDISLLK

As to `NCCCCCOC1OC(COS(=O)(=O)O)C(OC2OC(C(=O)O)C(OC3OC(COS(=O)(=O)O)C(OC4OC(C(=O)O)C(OC5OC(COS(=O)(=O)O)C(OC6OC(C(=O)O)C(O)C(O)C6O)C(O)C5NS(=O)(=O)O)C(O)C4O)C(O)C3NS(=O)(=O)O)C(O)C2O)C(O)C1NS(=O)(=O)O` [Compound 69, 5-aminopentyl [(β-D-glucopyranosyluronate)-(1→4)-(2-deoxy-2-sulfoamino-6-O-sulfonato-α-D-glucopyranoside)-(1→4)-O-(α-L-idopyranosyluronate)-(1→4)-O-(2-deoxy-2-sulfoamino-6-O-sulfanate-α-D-glucopyranoside)-(1→4)-(β-D-glucopyranosyluronate)]-(1→4)-O-2-deoxy-N-sulfoamino-6-O-sulfonate-α-D-glucopyranoside nonasodium salt], the IC50 under setting [1] was 40.1 µM and the IC50 under setting [2] amounted to 36 µM.

In the case of `CC(=O)NC1C(OC2C(C(=O)O)OC(OC3C(COS(=O)(=O)O)OC(OCCCCCN)C(NC(C)=O)C3O)C(O)C2O)OC(COS(=O)(=O)O)C(OC2OC(C(=O)O)C(O)C(O)C2O)C1O` [Compound 76, 5-aminopentyl [(β-D-glucopyranosyluronate)-(1→4)-(2-acetamido-2-deoxy-6-O-sulfanate-α-D-glucopyranoside)-(1→4)-O-(β-D-glucopyranosyluronate-(1→4)-O-2-acetamido-2-deoxy-6-O-sulfanate-α-D-glucopyranosidetetrasodium salt], the IC50 is, setting by setting: under setting [1], 38.2 µM; under setting [2], 35 µM. As to `CC(=O)NC1C(OC2C(C(=O)O)OC(OC3C(COS(=O)(=O)O)OC(OCCCCCN)C(NC(C)=O)C3O)C(O)C2O)OC(COS(=O)(=O)O)C(OC2OC(C(=O)O)C(O)C(O)C2O)C1O` [Compound 78, 5-Aminopentyl[β-D-glucopyranosyluronate-(1→4)-(2-acetamido-2-deoxy-6-O-sulfonate-α-D-glucopyranoside)-(1→4)-α-L-idopyranosyluronate)]-(1→4)-2-acetamido-2-deoxy-6-O-sulfonate-α-D-glucopyranoside tetrasodium salt], the IC50 under setting [1] is greater than 294 µM. Turning to `CC(=O)NC1C(OC2C(C(=O)O)OC(OC3C(COS(=O)(=O)O)OC(OCCCCCN)C(NC(C)=O)C3O)C(O)C2O)OC(COS(=O)(=O)O)C(OC2OC(C(=O)O)C(O)C(O)C2O)C1O` [Compound 80, 5-aminopentyl [(α-L-idopyranosyluronate)-(1→4)-O-(2-acetamido-2-deoxy-6-O-sulfonate-α-D-glucopyranoside)-(1→4)-O-(β-D-glucopyranosyluronate)]-(1→4)-(2-acetamido-2-deoxy-6-O-sulfonate-α-D-glucopyranosidetetrasodium salt], the IC50 under setting [1] is 102 µM and the IC50 under setting [2] came to 94 µM.

For the molecule `CC(=O)NC1C(OC2C(C(=O)O)OC(OC3C(COS(=O)(=O)O)OC(OCCCCCN)C(NC(C)=O)C3O)C(O)C2O)OC(COS(=O)(=O)O)C(OC2OC(C(=O)O)C(O)C(O)C2O)C1O` [Compound 82, 5-aminopentyl [(α-L-idopyranosyluronate)-(1→4)-(2-acetamido-2-deoxy-6-O-sulfonate-α-D-glucopyranoside)-(1→4)-O-(α-L-idopyranosyluronate-(1→4)-O-2-acetamido-2-deoxy-6-O-sulfonate-α-D-glucopyranosidetetrasodium salt], the IC50 under setting [1] is 34.2 µM and the IC50 under setting [2] was determined as 32 µM. Consider `CC(=O)NC1C(OC2C(C(=O)O)OC(OC3C(COS(=O)(=O)O)OC(OCCCCCN)C(NC(C)=O)C3O)C(OS(=O)(=O)O)C2O)OC(COS(=O)(=O)O)C(OC2OC(C(=O)O)C(O)C(O)C2O)C1O` [Compound 84, 5-Aminopentyl [(α-L-idopyranosyluronate)-(1→4)-O-(2-acetamido-2-deoxy-6-O-sulfonate-α-D-glucopyranoside)-(1→4)-O-(2-O-sulfonato-α-L-idopyranosyl-uronate)]-(1→4)-2-deoxy-2-acetamido-6-O-sulfonate-α-D-glucopyranoside penta sodium salt], for which, under setting [1], the IC50 was greater than 272 µM. Turning to `CC(=O)NC1C(OC2C(C(=O)O)OC(OC3C(COS(=O)(=O)O)OC(OCCCCCN)C(NC(C)=O)C3O)C(OS(=O)(=O)O)C2O)OC(COS(=O)(=O)O)C(OC2OC(C(=O)O)C(O)C(O)C2O)C1O` [Compound 85, 5-Aminopentyl [((3-D-glucopyranosyluronate)-(1→4)-O-(2-acetamido-2-deoxy-6-O-sulfonato-α-D-glucopyranoside)-(1→4)-O-(2-O-sulfonato-α-L-idopyranosyluronate)]-(1→4)-2-deoxy-2-acetamido-6-O-sulfonate-α-D-glucopyranosidepentasodium salt], the IC50 reads like this: under setting [1], 152 µM; under setting [2], 138 µM. Turning to `NCCCCCOC1OC(COS(=O)(=O)O)C(OC2OC(C(=O)O)C(OC3OC(COS(=O)(=O)O)C(OC4OC(C(=O)O)C(O)C(O)C4O)C(O)C3NS(=O)(=O)O)C(O)C2OS(=O)(=O)O)C(O)C1NS(=O)(=O)O` [Compound 86, 5-Aminopentyl [(β-D-glucopyranosyluronate)-(1→4)-O-(2-deoxy-2-sulfamino-6-O-sulfonate-α-D-glucopyranoside)-(1→4)-O-(2-O-sulfonate-α-L-idopyranosyluronate)-(1→4)-2-deoxy-2-sulfoamino-6-O-sulfonate-α-D-glucopyranosideheptasodium salt], the IC50 under setting [1] is greater than 255 µM.
